In patent US9163032B2, “Esters of DCPLA and methods of treatment using the same” (Blanchette Rockefeller Neurosciences Institute, priority 2011, dated 2015):

What was measured:
[1] = tested on: cultured primary rat hippocampal neurons; experiment: Neuroprotection against ASPD induced toxicity, MTT assay, primary neurons; assay type: cell-based
Protocol: Viability of cells was measured by MTT assay. MTT (i.e., 3-(4,5-dimethylthiazol-2-yl)-2,5-diphenyltetrazolium bromide) is a tetrazolium salt that is cleaved to formazan by the succinate dehydrogenase, which is only active in viable cells. After solubilization of the formazan, the amount of dye can be quantified with a microplate reader at 570 nm along with a reference of 630 nm. For the MTT assay, 5×10^4 primary rat hippocampal neurons from 18-day-old embryonic Sprague-Dawley rat brains or SH-SY5Y cells were plated on each well of 24-well plates coated with poly-D-lysine. After treatment, the cells were washed with 1× PBS and were incubated with 200 μl of 1 mg/ml MTT solution (Sigma, USA) at 37° C. for 2 hr. Then the MTT-solution was removed and the cells were lysed with 200 μl isopropanol containing 0.04 M HCl and […] for 10 min. Finally, the reading was taken at 570 nm and 630 nm. All the samples were done in triplicate and the data were represented as the percentage of control.
Bryostatin 1, DCPLA, and DCPLA-ME were tested against ASPD-induced cytotoxicity to determine their neuroprotective efficacy.

PKC-ε [2] = experiment: PKC-ε level in primary neurons (immunofluorescence, Western Blot); assay type: cell-based, rat
Protocol: (§1) Cells were grown in two chambered slides (Nunc, USA) at low density. For immunofluorescence staining, the cells were washed with PBS (pH 7.4) and fixed with 4% paraformaldehyde for 4 min. Following fixation, the cells were blocked and permeabilized with 5% serum and 0.3% Triton X-100 in 1×PBS for 30 min. Cells were washed three times with 1×PBS and incubated with primary antibodies for 1 hr at 1:100 dilution. After the incubation, the slides were again washed three times in 1×PBS and were incubated with the FITC anti-mouse IgG and Rhodamine anti-rabbit IgG for 1 hr at 1:400 dilution. The cells were further washed and stained with DAPI (4′,6-diamidino-2′-phenylindole, dihydrochloride) (Thermo Scientific, USA) to stain the nucleus. Finally, the slides were washed and mounted in Pro Long Gold antifade mounting solution (Invitrogen, USA) and were viewed under a LSM 710 Meta confocal microscope (Zeiss) at 350 nm, 490 nm, and 540 nm excitation and 470 nm, 525 nm, and 625 nm emission for DAPI, FITC, and Rhodamine respectively. Six individual fields at 63× oil lens magnification were analyzed for the mean fluorescence intensity (MFI) in each channel.
Cells were harvested in homogenizing buffer containing 10 mM Tris-Cl (pH 7.4), 1 mM PMSF (phenylmethylsulfonyl fluoride), 1 mM EGTA, 1 mM EDTA, 50 mM NaF, and 20 μM leupeptin, and were lysed by sonication. The homogenate was centrifuged at 100,000×g for 15 min at 4° C. to obtain the cytosolic fraction (supernatant) and membrane (pellet). The pellet was resuspended in the homogenizing buffer by sonication. […] Protein concentration was measured using the Coomassie Plus (Bradford) Protein Assay kit (Pierce, USA). Following quantification, 20 μg of protein from each sample was subjected to SDS-PAGE analysis in a 4-20% gradient Tris-Glycine gel (Invitrogen, USA). […] The blot was imaged in an ImageQuant RT-ECL (GE Life Sciences, Piscataway, N.J.) and densitometric quantification was performed using IMAL software (Blanchette Rockefeller Neurosciences Institute, Morgantown, W. Va.). […]

PKC-ε [3] = experiment: PKC-ε translocation to membrane in SH-SY5Y neuroblastoma cells (Western Blot); assay type: cell-based, human
Protocol: (§2) Cells were harvested in homogenizing buffer containing 10 mM Tris-Cl (pH 7.4), 1 mM PMSF (phenylmethylsulfonyl fluoride), 1 mM EGTA, 1 mM EDTA, 50 mM NaF, and 20 μM leupeptin, and were lysed by sonication. The homogenate was centrifuged at 100,000×g for 15 min at 4° C. to obtain the cytosolic fraction (supernatant) and membrane (pellet). The pellet was resuspended in the homogenizing buffer by sonication. For whole cell protein isolation from primary neurons, the homogenizing buffer contained 1% Triton X-100. Protein concentration was measured using the Coomassie Plus (Bradford) Protein Assay kit (Pierce, USA). Following quantification, 20 μg of protein from each sample was subjected to SDS-PAGE analysis in a 4-20% gradient Tris-Glycine gel (Invitrogen, USA). The separated protein was then transferred to a nitrocellulose membrane. The membrane was blocked with 5% BSA at room temperature for 15 min and was incubated with primary antibody overnight at 4° C. After the incubation, it was washed three times with TBS-T (Tris Buffered Saline-Tween 20) and further incubated with alkaline phosphatase conjugated secondary antibody (Jackson Immunoresearch Laboratories, USA) at 1:10000 dilution for 45 min. The membrane was finally washed three times with TBS-T and developed using the 1-step NBT-BCIP substrate (Pierce, USA). The blot was imaged in an ImageQuant RT-ECL (GE Life Sciences, Piscataway, N.J.) and densitometric quantification was performed using IMAL software (Blanchette Rockefeller Neurosciences Institute, Morgantown, W. Va.). For translocation assays, PKC activation was represented as the percentage of total protein in the membrane (membrane/cytosol+membrane).

synaptophysin = experiment: Synaptophysin expression in primary hippocampal neurons (immunofluorescence, Western Blot); assay type: cell-based, rat
Protocol: as §1, §2
(§3) To estimate the synaptic damage caused by the ASPDs on primary hippocampal neurons, the expression of synaptophysin (a presynaptic marker) and PSD-95 (a postsynaptic marker) was measured by immunofluorescence staining. […] Following a 20 hr incubation period, the cells were stained for nucleus, PSD-95, and synaptophysin. Expression levels were calculated as the change of percentage in mean fluorescence intensity compared to untreated cells.
(§4) Primary neurons, treated and untreated, were immunostained for MAP-2, synaptophysin, and PSD-95 to determine the synaptic integrity. […] Following a 20 hr incubation period, the cells were stained for MAP-2, PSD-95, and synaptophysin as described above.

PSD-95 = PSD-95 expression in primary hippocampal neurons (immunofluorescence); assay type: cell-based, rat; conditions: 20 hr
Protocol: as §1, §3, §4

MAP-2 = MAP-2 expression in primary hippocampal neurons (immunofluorescence); assay type: cell-based, rat; conditions: 20 hr
Protocol: as §1
Primary neurons, treated and untreated, were immunostained for MAP-2, synaptophysin, and PSD-95 to determine the synaptic integrity. […]

GSK-3β = experiment: Phospho GSK-3β (Ser-9) Western Blot in ASPD treated primary neurons; assay type: cell-based, rat
Protocol: Phospho GSK-3β expression was normalized against total GSK-3β expression. […] Data are represented as mean±SEM. (Student's t test *.p<0.05; and **, p<0.005 n=3).
Cells were harvested in homogenizing buffer containing 10 mM Tris-Cl (pH 7.4), 1 mM PMSF (phenylmethylsulfonyl fluoride), 1 mM EGTA, 1 mM EDTA, 50 mM NaF, and 20 μM leupeptin, and were lysed by sonication. The homogenate was centrifuged at 100,000×g for 15 min at 4° C. to obtain the cytosolic fraction (supernatant) and membrane (pellet). The pellet was resuspended in the homogenizing buffer by sonication. For whole cell protein isolation from primary neurons, the homogenizing buffer contained 1% Triton X-100. Protein concentration was measured using the Coomassie Plus (Bradford) Protein Assay kit (Pierce, USA). Following quantification, 20 μg of protein from each sample was subjected to SDS-PAGE analysis in a 4-20% gradient Tris-Glycine gel (Invitrogen, USA). The separated protein was then transferred to a nitrocellulose membrane. The membrane was blocked with 5% BSA at room temperature for 15 min and was incubated with primary antibody overnight at 4° C. […] The blot was imaged in an ImageQuant RT-ECL (GE Life Sciences, Piscataway, N.J.) and densitometric quantification was performed using IMAL software (Blanchette Rockefeller Neurosciences Institute, Morgantown, W. Va.). […]

ASPD: Amylospheroids from Aβ1-42, 100 kDa filter retentate, containing 39 monomers on average
viability of primary neurons ([1]; 50 nM ASPD alone, 20 hr): 57.6±1.6% | PKC-ε immunofluorescence level (PKC-ε [2]; ASPD, 20 hr, primary neurons): 60.81±5.85 % compared to control | reduction of PKC-ε membrane translocation (PKC-ε [3]; ASPD 50 nM): 46% | PKC-ε membrane translocation (PKC-ε [3]; ASPD 50 nM, relative to control): 69.98±3.27% | synaptophysin mean fluorescence intensity (synaptophysin; 50 nM ASPD, 20 hr): 63.3±3.8 % of control | synaptophysin mean fluorescence intensity (synaptophysin; 50 nM ASPD, 20 hr, listed as ASPDs): 62.45±6.74 % of control | decrease in synaptophysin intensity (synaptophysin; 50 nM, 20 hr): 40% | decrease of synaptophysin expression (Western Blot) (synaptophysin; ASPD): 26% | synaptophysin expression (Western Blot) (synaptophysin; ASPD, relative to control): 73.30% | PSD-95 mean fluorescence intensity (PSD-95; 50 nM ASPD): 67.63±7.24 % of control | decrease of PSD-95 expression (PSD-95; 50 nM ASPD): 42% | MAP-2 mean fluorescence intensity (MAP-2; 50 nM ASPD): 40.7±6.2 % of control | GSK-3β activation state (GSK-3β; ASPD 50 nM): activated GSK-3β

CCCCCC1CC1CC1CC1CCCCCCCC(=O)OC (stereo not drawn) [DCPLA-ME, DCPLA methyl ester]
more viable than Bryostatin 1-treated cells ([1]; 50 nM ASPD, DCPLA-ME 100 nM vs Bryostatin 1 0.27 nM): 16% | more viable than DCPLA-treated cells ([1]; 50 nM ASPD, DCPLA-ME 100 nM vs DCPLA 10 μM): 8% | PKC-ε protein level (Western Blot) (PKC-ε [2]; ASPD-treated primary neurons, 100 nM DCPLA-ME): restored the PKC-ε protein level to normal | PKC-ε translocation in ASPD-treated cells (PKC-ε [3]; ASPD + DCPLA-ME, FIG. 8D): restored PKC-ε translocation to normal | synaptophysin mean fluorescence intensity (synaptophysin; 50 nM ASPD + 100 nM DCPLA-ME, 20 hr): 87.48±3.75 % of control | PSD-95 mean fluorescence intensity (PSD-95; 50 nM ASPD + 100 nM DCPLA-ME): 99.2±11.3 % of control | MAP-2 mean fluorescence intensity (MAP-2; 50 nM ASPD + 100 nM DCPLA-ME): 68.87±2.0 % of control | phosphorylation of the Ser-9 residue of GSK-3β (GSK-3β; ASPD (50 nM) + DCPLA-ME (100 nM)): restored phosphorylation of the Ser-9 residue of GSK-3β to normal levels
